Source: patent US20230085307A1, “PYRIDAZINONE COMPOUND AND HERBICIDE” (NISSAN CHEMICAL CORPORATION, priority 2019, published 2023)

Columns and labels:
windgrass = test: Test Example 4: herbicidal effect by soil treatment (Table 19, symbol L); assay type: in vivo, windgrass (Apera spica-venti); details: for herbicidal effect rating, L: windgrass: amount of applied herbicide 320 g/ha
In short: (§1)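 Seeds were sown in sterilized diluvial soil and covered with about 1.5 cm of soil. An emulsion formulation diluted with water to a predetermined herbicide amount was sprayed evenly onto the soil surface. Plants grew in a greenhouse at 25° C. to 30° C., and the effect was scored three weeks after application using criteria from an earlier test.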

chickweed = test: Test Example 4: herbicidal effect by soil treatment (Table 19, symbol P); assay type: in vivo, common chickweed (Stellaria media); details: for herbicidal effect rating, P: chickweed: amount of applied herbicide 320 g/ha
In short: as §1

Japanese bulrush = test: Test Example 1: herbicidal activity, application before weed generation under submerged conditions (Table 16, symbol B); assay type: in vivo, Japanese bulrush (Schoenoplectus juncoides)
In short: (§2)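 Submerged Wagner pots (alluvial soil, 4 cm water) sown with weed seeds and planted with 2.5-leaf rice seedlings; emulsifiable concentrate diluted in water applied to water surface on sowing day. Held in greenhouse at 25-30 °C; injury scored 0-5 by herbicidal rate after three weeks.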

velvetleaf = test: Test Example 5: herbicidal effect by foliage application, plastic box (Table 20, symbol M); assay type: in vivo, velvetleaf (Abutilon theophrasti); details: foliage application; for effect on velvetleaf (M): 3 weeks after application; for herbicidal effect grade, M: velvetleaf: three weeks after application
In short: (§3)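 Plants sown in sterilized diluvial soil and grown 14 days in a greenhouse at 25° C to 30° C, then sprayed on the foliage with the compound's emulsion diluted in water to a predetermined herbicide amount. Injury to weeds and crops scored three weeks after application on a visual rating scale.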

Italian ryegrass [1] = test: Test Example 5: herbicidal effect by foliage application, plastic box (Table 20, symbol K); assay type: in vivo, Italian ryegrass (Lolium multiflorum); details: foliage application; for effect on Italian ryegrass (K): 3 weeks after application; for herbicidal effect grade, K: Italian ryegrass: three weeks after application
In short: as §3

southern crabgrass = test: Test Example 4: herbicidal effect by soil treatment (Table 19, symbol F); assay type: in vivo, southern crabgrass (Digitaria ciliaris); details: for herbicidal effect rating, F: southern crabgrass: amount of applied herbicide 320 g/ha
In short: as §1

rice flat sedge = test: Test Example 3: herbicidal effect by foliage application, Wagner pot (Table 18, symbol E); assay type: in vivo, rice flat sedge (Cyperus iria)
In short: (§4)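 Plants were sown in alluvial soil held under 0.1–0.5 cm standing water and grown 14 days in a greenhouse at 25–30 °C. An emulsifiable formulation, water-diluted to the set dose, was then sprayed onto the foliage, and effects were scored three weeks later using previously defined criteria.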

blackgrass = test: Test Example 5: herbicidal effect by foliage application, plastic box (Table 20, symbol J); assay type: in vivo, blackgrass (Alopecurus myosuroides); details: foliage application; for effect on blackgrass (J): 3 weeks after application; for herbicidal effect grade, J: blackgrass: three weeks after application
In short: as §3

lambsquarters = test: Test Example 4: herbicidal effect by soil treatment (Table 19, symbol O); assay type: in vivo, lambsquarters (Chenopodium album); details: for herbicidal effect rating, O: lambsquarters: amount of applied herbicide 320 g/ha
In short: as §1

late watergrass [2] = test: Test Example 2: herbicidal activity, application during weed generation under submerged conditions (Table 17, symbol A); assay type: in vivo, late watergrass (Echinochloa oryzicola); details: application during weed generation, submerged conditions
In short: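 Effect on each weed is rated three weeks post-treatment, using the same scoring criteria as the preceding test. Plants grow from mixed-sown seed in flooded alluvial soil (4 cm water) at 25° C. to 30° C., and are treated at one to two leaves with diluted emulsion dropped onto the water.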

late watergrass [3] = test: Test Example 1: herbicidal activity, application before weed generation under submerged conditions (Table 16, symbol A); assay type: in vivo, late watergrass (Echinochloa oryzicola)
In short: as §2

Italian ryegrass [4] = test: Test Example 4: herbicidal effect by soil treatment (Table 19, symbol K); assay type: in vivo, Italian ryegrass (Lolium multiflorum); details: for herbicidal effect rating, K: Italian ryegrass: amount of applied herbicide 320 g/ha
In short: as §1

Chinese sprangletop = test: Test Example 3: herbicidal effect by foliage application, Wagner pot (Table 18, symbol D); assay type: in vivo, chinese sprangletop (Leptochloa chinensis)
In short: as §4

wild oat [5] = test: Test Example 5: herbicidal effect by foliage application, plastic box (Table 20, symbol I); assay type: in vivo, wild oat (Avena fatua); details: foliage application; for effect on wild oat (I): 3 weeks after application; for herbicidal effect grade, I: wild oat: three weeks after application
In short: as §3

wild oat [6] = test: Test Example 4: herbicidal effect by soil treatment (Table 19, symbol I); assay type: in vivo, wild oat (Avena fatua); details: for herbicidal effect rating, I: wild oat: amount of applied herbicide 320 g/ha
In short: as §1

green foxtail = test: Test Example 5: herbicidal effect by foliage application, plastic box (Table 20, symbol G); assay type: in vivo, green foxtail (Setaria viridis); details: foliage application; for effect on green foxtail (G): 3 weeks after application; for herbicidal effect grade, G: green foxtail: three weeks after application
In short: as §3

barnyard grass = test: Test Example 5: herbicidal effect by foliage application, plastic box (Table 20, symbol H); assay type: in vivo, barnyard grass (Echinochloa crus-galli); details: foliage application; for effect on barnyard grass (H): 3 weeks after application; for herbicidal effect grade, H: barnyard grass: three weeks after application
In short: as §3

Structure (SMILES)	Herbicidal effect on B: Japanese bulrush (grade 0-5) (Japanese bulrush; 320 g/ha applied herbicide)	herbicidal effect on E (rice flat sedge), rating 0-5 (rice flat sedge; 320 g/ha)	herbicidal effect rating, A: late watergrass (late watergrass [2]; AAH 320 g/ha)	Herbicidal effect on A: late watergrass (grade 0-5) (late watergrass [3]; 320 g/ha applied herbicide)	herbicidal effect on D (Chinese sprangletop), rating 0-5 (Chinese sprangletop; 320 g/ha)	herbicidal effect rating, L: windgrass (windgrass)	herbicidal effect rating, P: chickweed (chickweed)	herbicidal effect grade, M: velvetleaf (velvetleaf; 320 g/ha)	herbicidal effect grade, K: Italian ryegrass (Italian ryegrass [1]; 320 g/ha)	herbicidal effect rating, F: southern crabgrass (southern crabgrass)	herbicidal effect grade, J: blackgrass (blackgrass; 320 g/ha)	herbicidal effect rating, O: lambsquarters (lambsquarters)	herbicidal effect rating, K: Italian ryegrass (Italian ryegrass [4])	herbicidal effect grade, I: wild oat (wild oat [5]; 320 g/ha)	herbicidal effect rating, I: wild oat (wild oat [6])	herbicidal effect grade, G: green foxtail (green foxtail; 320 g/ha)	herbicidal effect grade, H: barnyard grass (barnyard grass; 320 g/ha)	also measured
C#CC(C)Oc1ccc(-c2sc3ccccc3c2-c2c(OCOCCOC)c(C)nn(C)c2=O)cc1 (racemic) [1-218]																		L: windgrass, herbicidal effect rating (windgrass; AAH 187 g/ha): 0 (Herbicidal rate of 5% or less (almost no effect)); P: chickweed, herbicidal effect rating (chickweed; AAH 187 g/ha): 1 (Herbicidal rate of 5% or more and less than 20%); Herbicidal effect on B: Japanese bulrush (grade 0-5) (Japanese bulrush; 100 g/ha applied herbicide): 3 (Herbicidal rate of 40% or more and less than 70%); effect on velvetleaf (M) (velvetleaf; 187 g/ha): 4 (Herbicidal rate of 70% or more and less than 90%); effect on Italian ryegrass (K) (Italian ryegrass [1]; 187 g/ha): 2 (Herbicidal rate of 20% or more and less than 40%); F: southern crabgrass, herbicidal effect rating (southern crabgrass; AAH 187 g/ha): 0 (Herbicidal rate of 5% or less (almost no effect)); herbicidal effect on E (rice flat sedge), rating 0-5 (rice flat sedge; 100 g/ha): 4 (Herbicidal rate of 70% or more and less than 90%); effect on blackgrass (J) (blackgrass; 187 g/ha): 4 (Herbicidal rate of 70% or more and less than 90%); O: lambsquarters, herbicidal effect rating (lambsquarters; AAH 187 g/ha): 3 (Herbicidal rate of 40% or more and less than 70%); herbicidal effect rating, A: late watergrass (late watergrass [2]; AAH 100 g/ha): 3 (Herbicidal rate of 40% or more and less than 70%); Herbicidal effect on A: late watergrass (grade 0-5) (late watergrass [3]; 100 g/ha applied herbicide): 4 (Herbicidal rate of 70% or more and less than 90%); K: Italian ryegrass, herbicidal effect rating (Italian ryegrass [4]; AAH 187 g/ha): 0 (Herbicidal rate of 5% or less (almost no effect)); herbicidal effect on D (Chinese sprangletop), rating 0-5 (Chinese sprangletop; 100 g/ha): 4 (Herbicidal rate of 70% or more and less than 90%); effect on wild oat (I) (wild oat [5]; 187 g/ha): 0 (Herbicidal rate of 5% or less (almost no effect)); I: wild oat, herbicidal effect rating (wild oat [6]; AAH 187 g/ha): 0 (Herbicidal rate of 5% or less (almost no effect)); effect on green foxtail (G) (green foxtail; 187 g/ha): 5 (Herbicidal rate of 90% or more (almost completely withered)); effect on barnyard grass (H) (barnyard grass; 187 g/ha): 3 (Herbicidal rate of 40% or more and less than 70%)
CCC(COc1ccc(-c2sc3ccccc3c2-c2c(O)c(C)nn(C)c2=O)cc1)OC (racemic) [1-230]	5 (Herbicidal rate of 90% or more (almost completely withered))	3 (Herbicidal rate of 40% or more and less than 70%)	4 (Herbicidal rate of 70% or more and less than 90%)	5 (Herbicidal rate of 90% or more (almost completely withered))	5 (Herbicidal rate of 90% or more (almost completely withered))													L: windgrass, herbicidal effect rating (windgrass; AAH 320 g/ha): 0 (Herbicidal rate of 5% or less (almost no effect)); P: chickweed, herbicidal effect rating (chickweed; AAH 320 g/ha): 2 (Herbicidal rate of 20% or more and less than 40%); effect on velvetleaf (M) (velvetleaf; 320 g/ha): 5 (Herbicidal rate of 90% or more (almost completely withered)); effect on Italian ryegrass (K) (Italian ryegrass [1]; 320 g/ha): 4 (Herbicidal rate of 70% or more and less than 90%); F: southern crabgrass, herbicidal effect rating (southern crabgrass; AAH 320 g/ha): 0 (Herbicidal rate of 5% or less (almost no effect)); effect on blackgrass (J) (blackgrass; 320 g/ha): 5 (Herbicidal rate of 90% or more (almost completely withered)); O: lambsquarters, herbicidal effect rating (lambsquarters; AAH 320 g/ha): 5 (Herbicidal rate of 90% or more (almost completely withered)); K: Italian ryegrass, herbicidal effect rating (Italian ryegrass [4]; AAH 320 g/ha): 4 (Herbicidal rate of 70% or more and less than 90%); effect on wild oat (I) (wild oat [5]; 320 g/ha): 4 (Herbicidal rate of 70% or more and less than 90%); I: wild oat, herbicidal effect rating (wild oat [6]; AAH 320 g/ha): 0 (Herbicidal rate of 5% or less (almost no effect)); effect on green foxtail (G) (green foxtail; 320 g/ha): 5 (Herbicidal rate of 90% or more (almost completely withered)); effect on barnyard grass (H) (barnyard grass; 320 g/ha): 5 (Herbicidal rate of 90% or more (almost completely withered))
CCCC(=O)Oc1c(C)nn(C)c(=O)c1-c1c(-c2ccc(OCC)cc2)sc2ccccc12 [1-014]	5 (Herbicidal rate of 90% or more (almost completely withered))	5 (Herbicidal rate of 90% or more (almost completely withered))	3 (Herbicidal rate of 40% or more and less than 70%)	5 (Herbicidal rate of 90% or more (almost completely withered))	0 (Herbicidal rate of 5% or less (almost no effect))	0 (Herbicidal rate of 5% or less (almost no effect))	4 (Herbicidal rate of 70% or more and less than 90%)	4 (Herbicidal rate of 70% or more and less than 90%)	3 (Herbicidal rate of 40% or more and less than 70%)	0 (Herbicidal rate of 5% or less (almost no effect))	0 (Herbicidal rate of 5% or less (almost no effect))	2 (Herbicidal rate of 20% or more and less than 40%)	0 (Herbicidal rate of 5% or less (almost no effect))	1 (Herbicidal rate of 5% or more and less than 20%)	0 (Herbicidal rate of 5% or less (almost no effect))	4 (Herbicidal rate of 70% or more and less than 90%)	4 (Herbicidal rate of 70% or more and less than 90%)	
CCCOc1ccccc1-c1sc2ccccc2c1-c1c(O)c(C)nn(C)c1=O [1-015]	3 (Herbicidal rate of 40% or more and less than 70%)	5 (Herbicidal rate of 90% or more (almost completely withered))	3 (Herbicidal rate of 40% or more and less than 70%)	3 (Herbicidal rate of 40% or more and less than 70%)	3 (Herbicidal rate of 40% or more and less than 70%)	5 (Herbicidal rate of 90% or more (almost completely withered))	3 (Herbicidal rate of 40% or more and less than 70%)	5 (Herbicidal rate of 90% or more (almost completely withered))	4 (Herbicidal rate of 70% or more and less than 90%)	3 (Herbicidal rate of 40% or more and less than 70%)	5 (Herbicidal rate of 90% or more (almost completely withered))	0 (Herbicidal rate of 5% or less (almost no effect))	0 (Herbicidal rate of 5% or less (almost no effect))	3 (Herbicidal rate of 40% or more and less than 70%)	0 (Herbicidal rate of 5% or less (almost no effect))	4 (Herbicidal rate of 70% or more and less than 90%)	3 (Herbicidal rate of 40% or more and less than 70%)	
CCCCCOc1ccc(-c2sc3ccccc3c2-c2c(O)c(C)nn(C)c2=O)cc1 [1-026]	2 (Herbicidal rate of 20% or more and less than 40%)	4 (Herbicidal rate of 70% or more and less than 90%)	2 (Herbicidal rate of 20% or more and less than 40%)	1 (Herbicidal rate of 5% or more and less than 20%)	1 (Herbicidal rate of 5% or more and less than 20%)	0 (Herbicidal rate of 5% or less (almost no effect))	2 (Herbicidal rate of 20% or more and less than 40%)	5 (Herbicidal rate of 90% or more (almost completely withered))	2 (Herbicidal rate of 20% or more and less than 40%)	0 (Herbicidal rate of 5% or less (almost no effect))	4 (Herbicidal rate of 70% or more and less than 90%)	0 (Herbicidal rate of 5% or less (almost no effect))	0 (Herbicidal rate of 5% or less (almost no effect))	2 (Herbicidal rate of 20% or more and less than 40%)	0 (Herbicidal rate of 5% or less (almost no effect))	5 (Herbicidal rate of 90% or more (almost completely withered))	3 (Herbicidal rate of 40% or more and less than 70%)	
